Reference: PubChem BioAssay (NCI)
Values joined by “and” are separate entries in the source; they are usually repeats but may differ in a detail not shown here. Equal entries are not always repeated.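 1) Cells in 96-well plates. 2) Compound, 48 h, 5 concentrations. 3) Linear interpolation between surrounding doses. 4) Unreached endpoint = highest concentration. At the GI50, growth is halved. TGI: concentration producing complete growth inhibition.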

Key:
Assay in all cases: NCI tumour cell line growth inhibition, 48 h
NCI-H226 lung = system: NCI-H226 lung
NCI-H23 lung = system: NCI-H23 lung
U251 CNS = system: U251 CNS
IGROV1 ovarian = system: IGROV1 ovarian
HOP-62 NSCLC = system: HOP-62 NSCLC
HCT-116 colon = system: HCT-116 colon
SW-620 colon = system: SW-620 colon
A549 NSCLC = system: A549 NSCLC
SF-539 CNS = system: SF-539 CNS
DU-145 prostate = system: DU-145 prostate

Row | Compound | TGI (NCI-H226 lung) | TGI (NCI-H23 lung) | TGI (U251 CNS) | TGI (IGROV1 ovarian) | TGI (HOP-62 NSCLC) | TGI (HCT-116 colon) | TGI (SW-620 colon) | TGI (A549 NSCLC) | TGI (SF-539 CNS) | GI50 (NCI-H226 lung) | GI50 (NCI-H23 lung) | GI50 (U251 CNS) | GI50 (IGROV1 ovarian) | GI50 (HOP-62 NSCLC) | GI50 (A549 NSCLC) | GI50 (DU-145 prostate) | TGI (DU-145 prostate) | GI50 (HCT-116 colon) | GI50 (SW-620 colon) | GI50 (SF-539 CNS)
1 | Nc1ncnc2c1ncn2COC/C=C/I | > 100 µM | > 100 µM | > 100 µM | > 100 µM | > 100 µM | > 100 µM | > 100 µM | > 100 µM | > 100 µM |  |  |  |  |  |  |  |  |  |  | 
2 | COC(=O)C(=O)C(C(=O)C(=O)Nc1nc(=S)[nH][nH]1)c1nc2ccc([N+](=O)[O-])cc2[nH]c1=O (stereo not drawn) | > 100 µM | > 100 µM | > 100 µM | > 100 µM | > 100 µM | > 100 µM | > 100 µM | > 100 µM | > 100 µM |  |  |  |  |  |  |  |  |  |  | 
3 | COc1ccc2c(c1)O/C(=C\c1ccc([N+](=O)[O-])s1)C2=O | > 100 µM | 5.92 µM | > 20.9 µM |  | > 31.6 µM |  |  | > 100 µM |  | > 31.3 µM | 1.33 µM | 2.07 µM | 1.14 µM | 8.11 µM | 3.46 µM | 2.53 µM | > 24.8 µM |  |  | 
4 | CCOc1cc[n+](C(=C=[N-])C#N)cc1 | > 100 µM | > 100 µM | > 100 µM | > 100 µM | > 100 µM | > 100 µM | > 100 µM | > 100 µM | > 100 µM |  |  |  |  |  |  |  |  |  |  | 
5 | N#CCCn1c(CCC(=O)Nc2ccc(Cl)cc2Cl)n[nH]c1=S | > 100 µM | > 100 µM | > 100 µM | > 100 µM | > 100 µM | > 100 µM | > 100 µM | > 100 µM | > 100 µM |  |  |  |  |  |  |  |  |  |  | 
6 | Cc1ccc(SSCCCCS(=O)O)cc1 |  | 55.4 µM | 39.2 µM | 18.8 µM | 81.1 µM | > 100 µM | 38.5 µM | 70.6 µM | 38.1 µM |  |  |  |  |  |  |  |  |  |  | 
7 | Cc1ccccc1NC(=O)CC(=O)n1nc(-c2ccccc2)c(N=Nc2ccc([N+](=O)[O-])cc2)c1-c1ccccc1 | 58.4 µM | > 100 µM | 34.6 µM | > 100 µM | 48.3 µM | 31.5 µM | > 100 µM | 41.8 µM | 52 µM |  |  |  |  |  |  |  |  |  |  | 
8 | N#CC1C(=O)NC(=O)C(C#N)C1c1ccc(Cl)c(Cl)c1 (stereo not drawn) |  | 49.2 µM | 51.5 µM | 47.3 µM | 43.4 µM | 29.7 µM | 36.8 µM | > 100 µM | 42.6 µM |  |  |  |  |  |  |  | > 100 µM |  |  | 
9 | O=C(Nc1ccc(N2CCNCC2)cn1)c1[nH]ncc1Nc1ncnc2sc3c(c12)CCC3 | 67.2 µM | 6.32 µM |  |  | 4.81 µM | 2.18 µM | 2.05 µM | 3.5 µM |  | 20 µM | 2.21 µM |  |  | 1.83 µM | 1.67 µM | 1.6 µM | 3.06 µM | 0.542 µM | 0.476 µM | 
10 | CCOc1ccccc1NC(=O)C(=O)c1c(O)c2ccc(O)cc2oc1=O | > 100 µM | > 100 µM | > 100 µM | > 100 µM | > 100 µM | > 100 µM | > 100 µM | > 100 µM | > 100 µM |  |  |  |  |  |  |  |  |  |  | 
11 | CCCCCCCCCCCCCCCC(N)c1ccccc1 (stereo not drawn) | 3.69 µM | 3.35 µM | 3.2 µM | 3.44 µM | 2.62 µM |  | 3.19 µM | 3.56 µM | 3.17 µM | 1.91 µM | 1.74 µM | 1.68 µM | 1.78 µM | 1.23 µM | 1.78 µM | 1.75 µM | 3.22 µM |  | 1.61 µM | 1.69 µM
12 | CCCCCC/C(CC(=O)CCC(=O)NCCc1ccccc1)=N\NC(=O)c1ccc2ccccc2c1O | > 100 µM | > 100 µM | > 100 µM | > 100 µM | > 100 µM | > 100 µM | > 100 µM | > 100 µM |  |  |  |  |  |  |  |  |  |  |  | 
13 | C#Cc1ccccc1N1C(=O)C=CC1=O | > 100 µM | > 100 µM | > 100 µM | > 100 µM | > 100 µM | > 100 µM | > 100 µM | > 100 µM |  |  |  |  |  |  |  |  |  |  |  | 
14 | CC(=O)N1CCN(C=S)CC1 | > 100 µM | > 100 µM | > 100 µM | > 100 µM | > 100 µM | > 100 µM | > 100 µM | > 100 µM | > 100 µM |  |  |  |  |  |  |  |  |  |  | 
15 | ClCCCN1CCCCC1CCl (stereo not drawn) |  | > 100 µM | > 100 µM | > 100 µM | > 100 µM | > 100 µM | > 100 µM | > 100 µM | > 100 µM |  |  |  |  |  |  |  |  |  |  | 
16 | CN(C)c1ccc(/C=c2\sc3nnc(Cc4ccccc4)n3c2=O)cc1 | > 100 µM | > 100 µM | > 100 µM | > 100 µM | > 100 µM | > 10 µM and 35.4 µM | > 10 µM and 29.2 µM | > 100 µM | > 100 µM | > 100 µM | > 100 µM | > 100 µM | > 100 µM | > 100 µM | > 10 µM |  |  | > 10 µM | > 10 µM | > 100 µM
17 | N#CC1([N+](=O)[O-])C=C1c1ccccc1 (stereo not drawn) | > 100 µM | > 100 µM | > 100 µM | > 100 µM | > 100 µM | > 100 µM | 41.6 µM | > 100 µM | > 100 µM |  |  |  |  |  |  |  |  |  |  | 
18 | CN/N=C(/CC(=O)c1sc(NNC(C)=O)nc1C)C(=O)Nc1ccc(OC)cc1OC | > 100 µM | > 100 µM | > 100 µM | > 100 µM | > 100 µM | > 100 µM | > 100 µM | > 100 µM | > 100 µM |  |  |  |  |  |  |  |  |  |  | 
19 | COc1cc(OC)c2c(c1Cl)O[C@]1(C2=O)C(OCc2ccccc2)=CC(=O)C[C@H]1C | 30.2 µM | 39.5 µM |  | 79.6 µM | 62.2 µM | > 100 µM | > 100 µM | > 100 µM | 9.28 µM | 4.18 µM | 1.02 µM |  | 2.79 µM | 1.36 µM | 0.769 µM | 0.485 µM | 5.63 µM | 0.46 µM | 0.641 µM | 0.884 µM
20 | OCC(O)C(OC1OC(CO)C(O)C(O)C1O)c1nn(-c2ccc(Cl)cc2)c2nc3cc(Cl)ccc3nc12 (stereo not drawn) |  | > 100 µM | > 100 µM |  | > 100 µM | > 100 µM |  |  | > 100 µM |  |  |  |  |  |  |  |  |  |  | 
